Test results taken from patent US10363239B2, “Method for inhibiting growth of cancer cells” (Pain Therapeutics, Inc., priority 2013, dated 2019).
Read-outs that look alike come from different tables or passages of the source.

Legend:
[1] = target: FLNA pentapeptide of SEQ ID NO: 1 (Bn-VAKGL) (Homo sapiens, UniProt P21333); experiment: FITC-NLX-based FLNA screening assay (inhibition of FITC-naloxone binding to Bn-VAKGL on streptavidin plates); conditions: 10 nM FITC-NLX
mu opiate receptor (MOR) = experiment: MOR agonist activity using [35S]GTPγS binding assay in striatal membranes; type: biochemical; conditions: for MOR agonist activity ([35S]GTPγS binding), FLNA-Binding Compound as Agonist 1 μM + BFNA: 1 μM compound + 1 μM β-funaltrexamine
Method in brief: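 Striatal membranes (200 μg) were preincubated 5 min at 30 °C in HEPES pH 7.5 with 100 mM NaCl, 1 mM MgCl2 and 0.5 nM [35S]GTPγS, then 5 min more with 0.1–10 μM compound. Gαo was immunoprecipitated and bound radioactivity counted by scintillation.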

[2] = FLNA-binding compound 0.01 μM, read-out: Percent Binding Inhibition
[3] = FLNA-binding compound 0.1 μM, read-out: Percent Binding Inhibition
[4] = FLNA-binding compound 1 μM, read-out: Percent Binding Inhibition
[5] = Series C-2, 0.1 μM compound, relative to DAMGO
[6] = Series C-2, 0.1 μM compound, [35S]GTPγS binding to Gαo, striatal membranes
[7] = Series C-2, 1 μM compound + 1 μM β-FNA
[8] = Series C-2, 1 μM compound + β-FNA, relative to DAMGO + BFNA
[9] = Series C-2, 1 μM compound, relative to DAMGO
[10] = Series C-2, 1 μM compound, [35S]GTPγS binding to Gαo, striatal membranes
[11] = read-out: Percent Binding Inhibition, FLNA-binding compound 0.01 μM
[12] = read-out: Percent Binding Inhibition, FLNA-binding compound 0.1 μM
[13] = read-out: Percent Binding Inhibition, FLNA-binding compound 1 μM
[14] = Series C-1, 0.1 μM compound, relative to DAMGO
[15] = Series C-1, 0.1 μM compound, [35S]GTPγS binding to Gαo, striatal membranes
[16] = Series C-1, 1 μM compound + 1 μM β-FNA
[17] = Series C-1, 1 μM compound + β-FNA, relative to DAMGO + BFNA
[18] = Series C-1, 1 μM compound, relative to DAMGO
[19] = Series C-1, 1 μM compound, [35S]GTPγS binding to Gαo, striatal membranes
[20] = 0.1 μM compound relative to DAMGO
[21] = 1 μM compound + BFNA relative to DAMGO + BFNA
[22] = 1 μM compound relative to DAMGO
[23] = Series B, 0.1 μM compound, relative to DAMGO
[24] = Series B, 0.1 μM compound, [35S]GTPγS binding to Gαo, striatal membranes
[25] = Series B, 1 μM compound + 1 μM β-FNA
[26] = Series B, 1 μM compound + β-FNA, relative to DAMGO + BFNA
[27] = Series B, 1 μM compound, relative to DAMGO
[28] = Series B, 1 μM compound, [35S]GTPγS binding to Gαo, striatal membranes

SMILES	inhibition at 0.01 µM [1, 2]	inhibition at 0.1 µM [1, 3]	inhibition at 1 µM [1, 4]	% DAMGO (0.1 μM) (mu opiate receptor (MOR); [5])	MOR agonist activity, percent [35S]GTPγS binding at the stated compound concentration (mu opiate receptor (MOR); [6])	MOR agonist activity, percent [35S]GTPγS binding at the stated compound concentration (mu opiate receptor (MOR); [7])	% DAMGO + BFNA (mu opiate receptor (MOR); [8])	% DAMGO (1 μM) (mu opiate receptor (MOR); [9])	MOR agonist activity, percent [35S]GTPγS binding at the stated compound concentration (mu opiate receptor (MOR); [10])	inhibition at 0.01 µM [1, 11]	inhibition at 0.1 µM [1, 12]	inhibition at 1 µM [1, 13]	further results
CC(=O)c1ccc(S(=O)(=O)N2CC(CN(C)C)OC23CCN(CC2CC2)CC3)cc1 (stereo not drawn) [Compound C0128M]	46.5%	54.4%	58.2%	104.5%	197.8%	63.9%	131.8%	115.2%	286.0%				
O=S(=O)(c1ccc(F)cc1)N1CCC2(CC1)OCCN2S(=O)(=O)c1ccc(F)cc1 [Compound C0029]										38.6%	43.2%	50.5%	% DAMGO (0.1 μM) (mu opiate receptor (MOR); [14]): 91.2%; Concentration of FLNA-Binding Compound as Agonist 0.1 μM (mu opiate receptor (MOR); [15]): 175.4%; Concentration of FLNA-Binding Compound as Agonist 1 μM + BFNA (mu opiate receptor (MOR); [16]): 16.6%; % DAMGO + BFNA (mu opiate receptor (MOR); [17]): 37.8%; % DAMGO (1 μM) (mu opiate receptor (MOR); [18]): 113.1%; Concentration of FLNA-Binding Compound as Agonist 1 μM (mu opiate receptor (MOR); [19]): 308.8%
CC1CN(CC(O)COc2ccc(Br)c(Cl)c2)CC(C)O1 (stereo not drawn) [Compound A0045]	28.1%	35%	37.8%										MOR agonist activity ([35S]GTPγS binding), FLNA-Binding Compound as Agonist 0.1 μM (mu opiate receptor (MOR); 0.1 μM compound): 143.9%; % DAMGO (0.1 μM) (mu opiate receptor (MOR); [20]): 73.3%; MOR agonist activity ([35S]GTPγS binding), FLNA-Binding Compound as Agonist 1 μM (mu opiate receptor (MOR); 1 μM compound): 274.2%; MOR agonist activity ([35S]GTPγS binding), FLNA-Binding Compound as Agonist 1 μM + BFNA (mu opiate receptor (MOR)): 99.2%; % DAMGO + BFNA (mu opiate receptor (MOR); [21]): 134.2%; % DAMGO (1 μM) (mu opiate receptor (MOR); [22]): 99.3%
COc1cccc(CC(=O)CC2c3c(cc4c(c3OC)OCO4)CC[N+]2(C)C)c1OC (stereo not drawn) [Compound B0038]										41.2%	50.1%	57%	% DAMGO (0.1 μM) (mu opiate receptor (MOR); [23]): 94.2%; MOR agonist activity, percent [35S]GTPγS binding at the stated compound concentration (mu opiate receptor (MOR); [24]): 147.5%; MOR agonist activity, percent [35S]GTPγS binding at the stated compound concentration (mu opiate receptor (MOR); [25]): 117.1%; % DAMGO + BFNA (mu opiate receptor (MOR); [26]): 359.2%; % DAMGO (1 μM) (mu opiate receptor (MOR); [27]): 88.7%; MOR agonist activity, percent [35S]GTPγS binding at the stated compound concentration (mu opiate receptor (MOR); [28]): 205.3%
O=C1CN(Cc2ccccc2)C2(CCNCC2)N1 [Compound C0115M]				105.7%	177.2%	118.4%	249.3%	102.0%	226.8%	47.8%	57.8%	59.9%	
CC(=O)c1ccc(S(=O)(=O)N2CC(=O)NC23CCNCC3)cc1 [Compound C0086M]				117.5%	206.8%	152.3%	692.3%	104.9%	265.3%	37.9%	48.1%	53.4%	
CC1CCC(C(C)C)C(OCC(O)CN2CCCCCC2)C1 (stereo not drawn) [Compound A0013]	30.2%	40.2%	47.7%										MOR agonist activity ([35S]GTPγS binding), FLNA-Binding Compound as Agonist 0.1 μM (mu opiate receptor (MOR); 0.1 μM compound): 102.1%; % DAMGO (0.1 μM) (mu opiate receptor (MOR); [20]): 57.8%; MOR agonist activity ([35S]GTPγS binding), FLNA-Binding Compound as Agonist 1 μM (mu opiate receptor (MOR); 1 μM compound): 164.8%; MOR agonist activity ([35S]GTPγS binding), FLNA-Binding Compound as Agonist 1 μM + BFNA (mu opiate receptor (MOR)): 86.1%; % DAMGO + BFNA (mu opiate receptor (MOR); [21]): 131.1%; % DAMGO (1 μM) (mu opiate receptor (MOR); [22]): 63.6%
COc1c2c(cc3c1C(CC(=O)Cc1ccccc1C)N(C)CC3)OCO2 (stereo not drawn) [Compound B0053]										33.1%	37.3%	47.6%	% DAMGO (0.1 μM) (mu opiate receptor (MOR); [23]): 94.8%; MOR agonist activity, percent [35S]GTPγS binding at the stated compound concentration (mu opiate receptor (MOR); [24]): 160.2%; MOR agonist activity, percent [35S]GTPγS binding at the stated compound concentration (mu opiate receptor (MOR); [25]): 134.3%; % DAMGO + BFNA (mu opiate receptor (MOR); [26]): 809.0%; % DAMGO (1 μM) (mu opiate receptor (MOR); [27]): 137.0%; MOR agonist activity, percent [35S]GTPγS binding at the stated compound concentration (mu opiate receptor (MOR); [28]): 299.8%
O=S(=O)(c1ccc(C(F)(F)F)cc1Br)N1CCC2(CC1)OCCN2S(=O)(=O)c1ccc(C(F)(F)F)cc1Br [Compound C0071]										39.1%	49.6%	55.2%	% DAMGO (0.1 μM) (mu opiate receptor (MOR); [14]): 160.5%; Concentration of FLNA-Binding Compound as Agonist 0.1 μM (mu opiate receptor (MOR); [15]): 276.3%; Concentration of FLNA-Binding Compound as Agonist 1 μM + BFNA (mu opiate receptor (MOR); [16]): 177.1%; % DAMGO + BFNA (mu opiate receptor (MOR); [17]): 513.3%; % DAMGO (1 μM) (mu opiate receptor (MOR); [18]): 161.7%; Concentration of FLNA-Binding Compound as Agonist 1 μM (mu opiate receptor (MOR); [19]): 355.3%
